Measurements reported in patent US20230064189A1, “1H-PYRAZOLO[3,4-D]PYRIMIDINE COMPOUNDS USEFUL FOR THE TREATMENT OF PLATINUM-RESISTANT CANCER” (IMPERIAL COLLEGE INNOVATIONS LIMITED, priority 2019, published 2023).
Several values for one entry are separate records, joined by “and”; a condition that tells them apart may be missing. Equal values may be shown once.

Key:
[1] = molecular target: AKT1 (Homo sapiens, UniProt P31749); test: AKT1 enzymatic inhibition assay (HTRF KinEASE); format: biochemical; conditions: read-out: AKT1 pIC50 (converted)
Description: (§1) The IC50 values of Example compounds of the invention for AKT1, AKT2 and AKT3 were measured using HTRF (Homogeneous Time Resolved Fluorescence) KinEASE assays (62ST3PEB—1000 tests or 62ST3PEC—20,000 tests) from cisbio.com, according to manufacturer's instructions.

[2] = molecular target: AKT2 (Homo sapiens, UniProt P31751); test: AKT2 enzymatic inhibition assay (HTRF KinEASE); format: biochemical; conditions: read-out: AKT2 pIC50 (converted)
Description: as §1

[3] = molecular target: AKT3 (Homo sapiens, UniProt Q9Y243); test: AKT3 enzymatic inhibition assay (HTRF KinEASE); format: biochemical; conditions: read-out: AKT3 pIC50 (converted)
Description: as §1

[4] = molecular target: DNA-PK (Homo sapiens, UniProt P78527); test: DNA-PK enzymatic inhibition assay (HTRF KinEASE); format: biochemical; conditions: read-out: DNA-PK pIC50 (converted)
Description: The IC50 values of Example compounds of the invention for DNA-PK were measured using the HTRF KinEASE assay as described above.

[5] = tested on: PEO4 cells; test: Relative re-sensitisation ratio of apoptosis induction (caspase 3/7 normalised to MTT) with cisplatin; format: cell-based; conditions: compound at 20 μM, triciribine at 25 μM, cisplatin 25 μM, 24 h
Description: Cell viability was determined for different assays (as described in FIGS. 1 and 2, Table 5) in optically clear 96 well plates using the standard 3-(4, 5-dimethylthiazol-2-yl)-2, 5-diphenyl tetrazolium bromide (MTT) assay, which is a colorimetric method for determining the number of metabolically active cells in cytotoxicity assays. MTT is bioreduced by mitochondrial dehydrogenase enzymes into a coloured solid formazan product. MTT reagent (Sigma, UK) was initially prepared by dissolving in PBS at a concentration of 3 mg/ml. Following relevant drug treatments at different time points and cell lines (described in results section and FIGS. 1 and 2), MTT reagent was added to each experimental well at a final concentration of 0.5 mg/ml. After incubation for 3 h at 37° C. 5% CO2, an equal volume of stop solution (10% SDS in 0.01% HCl) was added and formed formazan crystals were allowed to dissolve shaking overnight. The following day, the optical density was read at 570 nm and analysis performed as per each assay type.
The caspase 3/7 activity of cells following treatment with inhibitor compounds or vehicle (DMSO) was determined using the Caspase-Glo® 3/7 Assay (Catalogue number G8093, Promega, US) according to manufacturer's instructions. Briefly, 10,000 cells per well for PEO1 and PEO4 cell lines or 5000 cells per well for SKOV3 cell line were grown in 96 well plates in a final volume of 50 μl and following relevant drug treatment of cells (example compound±cisplatin, comparative example compound±cisplatin, or vehicle±cisplatin) for 24 hours, an equal volume of Caspase-Glo® Reagent containing a luminogenic substrate for Caspase 3 and Caspase 7 was added i.e. if cells cultured in 50 μl of media, 50 μl of caspase reagent was added. After 1 h incubation at room temperature in the dark, the luminescence of each sample was measured in a plate-reading luminometer (LUMIstar OPTIMA, BMG Labtech, Germany). Caspase 3/7 activity data was normalised to corresponding viability data from MTT and analysis was performed according to each experimental set-up.
. Apoptosis (caspase 3/7) and viability (MTT) assays were carried out as described for each assay protocols and the phenotypic apoptosis assays above. Relative apoptosis induction was inferred from caspase 3/7 assay values normalised to the standard MTT viability assay values of each corresponding well. […]

Sequence of AKT1 (P31749 150-408 limits assumed): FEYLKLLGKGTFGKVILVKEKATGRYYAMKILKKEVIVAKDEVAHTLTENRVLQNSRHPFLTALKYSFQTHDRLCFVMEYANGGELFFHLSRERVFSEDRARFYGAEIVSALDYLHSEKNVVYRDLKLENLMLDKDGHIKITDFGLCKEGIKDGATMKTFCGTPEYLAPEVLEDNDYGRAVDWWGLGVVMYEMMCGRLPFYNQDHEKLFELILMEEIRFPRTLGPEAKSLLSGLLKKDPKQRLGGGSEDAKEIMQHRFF
Sequence of AKT2 (P31751 152-409 limits assumed): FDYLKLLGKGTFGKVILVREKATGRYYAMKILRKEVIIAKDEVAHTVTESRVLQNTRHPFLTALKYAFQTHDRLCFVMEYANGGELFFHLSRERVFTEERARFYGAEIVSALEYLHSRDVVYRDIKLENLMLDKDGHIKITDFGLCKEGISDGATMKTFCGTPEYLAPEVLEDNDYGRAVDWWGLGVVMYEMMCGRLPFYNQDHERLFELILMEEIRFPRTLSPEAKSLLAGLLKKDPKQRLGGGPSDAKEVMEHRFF
Sequence of AKT3 (Q9Y243 148-405 limits assumed): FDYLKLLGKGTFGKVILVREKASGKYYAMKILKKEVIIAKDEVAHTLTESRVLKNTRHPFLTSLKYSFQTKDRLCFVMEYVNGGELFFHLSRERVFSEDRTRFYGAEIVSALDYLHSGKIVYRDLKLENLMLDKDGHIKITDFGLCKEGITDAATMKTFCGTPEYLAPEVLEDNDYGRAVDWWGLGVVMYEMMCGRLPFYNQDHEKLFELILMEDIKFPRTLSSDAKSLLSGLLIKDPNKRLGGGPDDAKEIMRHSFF

Row | IC50 [1] | IC50 [2] | IC50 [3] | IC50 [4] | Structure (SMILES) | Relative re-sensitisation ratio of apoptosis induction (caspase 3/7) relative to triciribine phosphate [5]
1 | 4.47 nM and 1.58 nM |  |  | 4.9 nM and 10.7 nM | CN(C)CCNC(=O)C(c1ccc(Cl)cc1)N1CCN(c2ncnc3[nH]nc(Br)c23)CC1 (single isomer, unassigned; (-)) [Example 3a, (−)-2-(4-(3-bromo-1H-pyrazolo[3,4-d]pyrimidin-4-yl)piperazin-1-yl)-2-(4-chlorophenyl)-N-(2-(dimethylamino)ethyl)acetamide] | 2.7
2 | 12.6 nM | 27.5 nM | 7.24 nM | 7.08 nM | Cc1n[nH]c2ncnc(N3CCC(C(OCCN(C)C)c4ccc(Cl)cc4)CC3)c12 (stereo not shown) [Example 5, 2-((4-chlorophenyl)(1-(3-methyl-1H-pyrazolo[3,4-d]pyrimidin-4-yl)piperidin-4-yl)methoxy)-N,N-dimethylethan-1-amine] | 2.5
3 | 0.912 nM | 3.63 nM | 1.38 nM | 2.75 nM | CN(C)CC(c1ccc(Cl)cc1)C1CCN(c2ncnc3[nH]nc(Br)c23)CC1 (stereo not shown) [Example 7, 2-(1-(3-bromo-1H-pyrazolo[3,4-d]pyrimidin-4-yl)piperidin-4-yl)-2-(4-chlorophenyl)-N,N-dimethylethan-1-amine] | 2.3
4 | 2.57 nM | 6.03 nM | 0.955 nM | 3.47 nM | CN(C)CCCC(O)(c1ccc(Cl)cc1)C1CCN(c2ncnc3[nH]nc(Br)c23)CC1 (stereo not shown) [Example 8, 1-(1-(3-bromo-1H-pyrazolo[3,4-d]pyrimidin-4-yl)piperidin-4-yl)-1-(4-chlorophenyl)-4-(dimethylamino)butan-1-ol] | 1.73
5 | 7.08 nM | 7.24 nM | 2.95 nM | 1.86 nM | CN(C)CC(c1ccc(Cl)cc1)N1CCN(c2ncnc3[nH]nc(C(F)(F)F)c23)CC1 (stereo not shown) [Example 13, 2-(4-chlorophenyl)-N,N-dimethyl-2-(4-(3-(trifluoromethyl)-1H-pyrazolo[3,4-d]pyrimidin-4-yl)piperazin-1-yl)ethanamine] | 1.2
6 | 2.51 nM | 6.46 nM | 1.29 nM | 4.68 nM | CN(C)CCCCC(O)(c1ccc(Cl)cc1)C1CCN(c2ncnc3[nH]nc(Br)c23)CC1 (stereo not shown) [Example 14, 1-(1-(3-bromo-1H-pyrazolo[3,4-d]pyrimidin-4-yl)piperidin-4-yl)-1-(4-chlorophenyl)-5-(dimethylamino)pentan-1-ol] | 1.2

Second part, the compound before the results:

Row | Structure (SMILES) | IC50 [1] | IC50 [2] | IC50 [3] | IC50 [4] | Relative re-sensitisation ratio of apoptosis induction (caspase 3/7) relative to triciribine phosphate [5]
7 | CN(C)CCNC(=O)C(c1ccc(Cl)cc1)N1CCN(c2ncnc3[nH]nc(Br)c23)CC1 (single isomer, unassigned; (+)) [Example 3b, (+)-2-(4-(3-bromo-1H-pyrazolo[3,4-d]pyrimidin-4-yl)piperazin-1-yl)-2-(4-chlorophenyl)-N-(2-(dimethylamino)ethyl)acetamide] | 15.1 nM | 34.7 nM | 5.25 nM | 10.5 nM | 1.4
8 | CN(C)CCNC(=O)C(c1ccc(Cl)cc1)N1CCN(c2ncnc3[nH]nc(Br)c23)CC1 (stereo not shown) [Example 3, 2-(4-(3-bromo-1H-pyrazolo[3,4-d]pyrimidin-4-yl)piperazin-1-yl)-2-(4-chlorophenyl)-N-(2-(dimethylamino)ethyl)acetamide] |  |  |  |  | 1.7
9 | CN(C)C(=O)C(c1ccc(Cl)cc1)N1CCN(c2ncnc3[nH]nc(Br)c23)CC1 (stereo not shown) [Example 4, 2-(4-(3-bromo-1H-pyrazolo[3,4-d]pyrimidin-4-yl)piperazin-1-yl)-2-(4-chlorophenyl)-N,N-dimethylacetamide] | 1350 nM | 2240 nM | 603 nM | 141 nM | 2.6
10 | CCN(CC)CCS(=O)(=O)N(c1ccc(Cl)cc1)C1CCN(c2ncnc3[nH]nc(Br)c23)CC1 [Example 6, N-(1-(3-bromo-1H-pyrazolo[3,4-d]pyrimidin-4-yl)piperidin-4-yl)-N-(4-chlorophenyl)-2-(diethylamino)ethane-1-sulfonamide] | 1.32 nM | 7.41 nM | 0.851 nM | 6.17 nM | 2.3
11 | CN(C)CCNC(c1ccc(Cl)cc1)C1CCN(c2ncnc3[nH]nc(Br)c23)CC1 (stereo not shown) [Example 9, N^1-((1-(3-bromo-1H-pyrazolo[3,4-d]pyrimidin-4-yl)piperidin-4-yl)(4-chlorophenyl)methyl)-N^2,N^2-dimethylethane-1,2-diamine] | 1.2 nM | 2.75 nM | 0.676 nM | 1.95 nM | 1.5
12 | CN(C)CCCOC(c1ccc(Cl)cc1)C1CCN(c2ncnc3[nH]nc(Br)c23)CC1 (stereo not shown) [Example 10, 3-((1-(3-bromo-1H-pyrazolo[3,4-d]pyrimidin-4-yl)piperidin-4-yl)(4-chlorophenyl)methoxy)-N,N-dimethylpropan-1-amine] |  |  |  |  | 1.5
13 | CN(C)CC(c1ccc(Cl)cc1)C1CCN(c2ncnc3[nH]nc(C(F)(F)F)c23)CC1 (stereo not shown) [Example 11, 2-(4-chlorophenyl)-N,N-dimethyl-2-(1-(3-(trifluoromethyl)-1H-pyrazolo[3,4-d]pyrimidin-4-yl)piperidin-4-yl)ethan-1-amine] | 0.912 nM | 1.66 nM | 0.316 nM | 1.7 nM | 1.3
14 | CN(C)CCCC(=C1CCN(c2ncnc3[nH]nc(C(F)(F)F)c23)CC1)c1ccc(Cl)cc1 [Example 15, 4-(4-chlorophenyl)-N,N-dimethyl-4-(1-(3-(trifluoromethyl)-1H-pyrazolo[3,4-d]pyrimidin-4-yl)piperidin-4-ylidene)butan-1-amine] | 933 nM | 490 nM | 158 nM | 12 nM | 1.1
15 | COc1ccc(O)c(C(=O)c2ccc(C(=O)N[C@@H]3CCCNC[C@H]3NC(=O)c3ccncc3)cc2)c1F [Roche comp-4, N-{(3R,4R)-4-[4-(2-fluoro-6-hydroxy-3-methoxy-benzoyl)-benzoylamino]-azepan-3-yl}-isonicotinamide, reference compound] |  | 170 nM | 209 nM | 8.51 nM | 
16 | CN1N=C(N)c2cn([C@@H]3O[C@H](COP(=O)(O)O)[C@@H](O)[C@H]3O)c3ncnc1c23 [Triciribine phosphate, ((2R,3S,4R,5R)-5-(3-amino-5-methyl-1,4,5,6,8-pentaazaacenaphthylen-1(5H)-yl)-3,4-dihydroxytetrahydrofuran-2-yl)methyl dihydrogen phosphate, reference compound] |  |  |  |  | 1.0
